Results reported in the supplement of paper PMC10307832.

Key:
Assay in all cases: relative viability (nuclei count vs DMSO), 5 days (fraction); higher = more cells survive
Everolimus + Alpelisib = compound: CO[C@H]1C[C@@H]2CC[C@@H](C)[C@@](O)(O2)C(=O)C(=O)N2CCCC[C@H]2C(=O)O[C@H]([C@H](C)C[C@@H]2CC[C@@H](OCCO)[C@H](OC)C2)CC(=O)[C@H](C)/C=C(\C)[C@@H](O)[C@@H](OC)C(=O)[C@H](C)C[C@H](C)/C=C/C=C/C=C/1C [Everolimus] + Cc1nc(NC(=O)N2CCC[C@H]2C(N)=O)sc1-c1ccnc(C(C)(C)C(F)(F)F)c1 [Alpelisib] (partner 2 µM)
Procedure, shortened: (§1)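 Nuclei were stained with Hoechst during a one-step fixation (final 0.05% Triton X-100, 1% formaldehyde, 1 ug/ml Hoechst) carried out 5 days after dosing, then counted on 4× images. The cells, lung cancer lines in 1536-well plates, had been dosed by pin tool the day after seeding with one drug alone or a fixed anchor-drug dose plus five library-drug doses (not always all listed) in √10 steps. Relative viability is the nuclei count in treated wells divided by that in vehicle wells, and each value is the median of duplicate plates.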

Everolimus + Pemetrexed = compound: CO[C@H]1C[C@@H]2CC[C@@H](C)[C@@](O)(O2)C(=O)C(=O)N2CCCC[C@H]2C(=O)O[C@H]([C@H](C)C[C@@H]2CC[C@@H](OCCO)[C@H](OC)C2)CC(=O)[C@H](C)/C=C(\C)[C@@H](O)[C@@H](OC)C(=O)[C@H](C)C[C@H](C)/C=C/C=C/C=C/1C [Everolimus] + Nc1nc2[nH]cc(CCc3ccc(C(=O)N[C@@H](CCC(=O)O)C(=O)O)cc3)c2c(=O)[nH]1 [Pemetrexed] (partner 0.2 µM)
Procedure, shortened: as §1

Everolimus + Olaparib = compound: CO[C@H]1C[C@@H]2CC[C@@H](C)[C@@](O)(O2)C(=O)C(=O)N2CCCC[C@H]2C(=O)O[C@H]([C@H](C)C[C@@H]2CC[C@@H](OCCO)[C@H](OC)C2)CC(=O)[C@H](C)/C=C(\C)[C@@H](O)[C@@H](OC)C(=O)[C@H](C)C[C@H](C)/C=C/C=C/C=C/1C [Everolimus] + O=C(c1cc(Cc2n[nH]c(=O)c3ccccc23)ccc1F)N1CCN(C(=O)C2CC2)CC1 [Olaparib] (partner 8 µM)
Procedure, shortened: as §1

Everolimus + Palbociclib = compound: CO[C@H]1C[C@@H]2CC[C@@H](C)[C@@](O)(O2)C(=O)C(=O)N2CCCC[C@H]2C(=O)O[C@H]([C@H](C)C[C@@H]2CC[C@@H](OCCO)[C@H](OC)C2)CC(=O)[C@H](C)/C=C(\C)[C@@H](O)[C@@H](OC)C(=O)[C@H](C)C[C@H](C)/C=C/C=C/C=C/1C [Everolimus] + CC(=O)c1c(C)c2cnc(Nc3ccc(N4CCNCC4)cn3)nc2n(C2CCCC2)c1=O [Palbociclib] (partner 0.5 µM)
Procedure, shortened: as §1

Row | Cell Line | relative viability (Everolimus + Alpelisib; first compound 0.01 µM) | relative viability (Everolimus + Alpelisib; first compound 0.03162 µM) | relative viability (Everolimus + Alpelisib; first compound 0.1 µM) | relative viability (Everolimus + Alpelisib; first compound 0.3162 µM) | relative viability (Everolimus + Alpelisib; first compound 1 µM) | relative viability (Everolimus + Pemetrexed; first compound 0.01 µM) | relative viability (Everolimus + Pemetrexed; first compound 0.03162 µM) | relative viability (Everolimus + Pemetrexed; first compound 0.1 µM) | relative viability (Everolimus + Pemetrexed; first compound 0.3162 µM) | relative viability (Everolimus + Pemetrexed; first compound 1 µM) | relative viability (Everolimus + Olaparib; first compound 0.01 µM) | relative viability (Everolimus + Olaparib; first compound 0.03162 µM) | relative viability (Everolimus + Olaparib; first compound 0.1 µM) | relative viability (Everolimus + Olaparib; first compound 0.3162 µM) | relative viability (Everolimus + Olaparib; first compound 1 µM) | relative viability (Everolimus + Palbociclib; first compound 0.01 µM) | relative viability (Everolimus + Palbociclib; first compound 0.03162 µM) | relative viability (Everolimus + Palbociclib; first compound 0.1 µM) | relative viability (Everolimus + Palbociclib; first compound 0.3162 µM) | relative viability (Everolimus + Palbociclib; first compound 1 µM)
1 | NCI-H1975 | 0.494 | 0.454 | 0.456 | 0.376 | 0.339 | 0.37 | 0.343 | 0.353 | 0.345 | 0.339 | 0.752 | 0.654 | 0.697 | 0.691 | 0.655 | 0.481 | 0.398 | 0.524 | 0.454 | 0.358
2 | NCI-H1993 | 0.674 | 0.654 | 0.602 | 0.627 | 0.672 | 0.516 | 0.457 | 0.482 | 0.508 | 0.547 | 0.584 | 0.364 | 0.499 | 0.529 | 0.558 | 0.495 | 0.436 | 0.489 | 0.493 | 0.408
3 | NCI-H2009 | 0.763 | 0.741 | 0.791 | 0.846 | 0.906 | 0.986 | 0.98 | 0.927 | 0.848 | 0.771 | 0.601 | 0.456 | 0.364 | 0.492 | 0.446 | 0.105 | 0.109 | 0.103 | 0.127 | 0.108
4 | NCI-H2023 | 0.411 | 0.326 | 0.302 | 0.271 | 0.215 | 0.18 | 0.174 | 0.201 | 0.19 | 0.142 | 0.276 | 0.294 | 0.253 | 0.256 | 0.296 | 0.176 | 0.139 | 0.151 | 0.129 | 0.129
5 | NCI-H2085 | 0.668 | 0.616 | 0.577 | 0.622 | 0.571 | 0.655 | 0.652 | 0.493 | 0.624 | 0.63 | 0.704 | 0.75 | 0.698 | 0.705 | 0.583 | 0.413 | 0.362 | 0.347 | 0.335 | 0.284
6 | NCI-H2087 | 0.796 | 0.897 | 0.839 | 0.663 | 0.657 | 0.587 | 0.636 | 0.612 | 0.608 | 0.626 | 0.491 | 0.444 | 0.524 | 0.465 | 0.508 | 0.235 | 0.195 | 0.163 | 0.217 | 0.245
7 | NCI-H2126 | 0.509 | 0.466 | 0.435 | 0.473 | 0.458 | 0.531 | 0.522 | 0.497 | 0.561 | 0.535 | 0.714 | 0.583 | 0.502 | 0.602 | 0.603 | 0.384 | 0.314 | 0.325 | 0.338 | 0.345
8 | NCI-H2170 | 0.365 | 0.367 | 0.333 | 0.312 | 0.354 | 0.259 | 0.26 | 0.248 | 0.271 | 0.257 | 0.361 | 0.285 | 0.318 | 0.329 | 0.316 | 0.195 | 0.187 | 0.162 | 0.16 | 0.186
9 | NCI-H2228 | 0.463 | 0.431 | 0.418 | 0.385 | 0.266 | 0.252 | 0.313 | 0.312 | 0.285 | 0.243 | 0.658 | 0.289 | 0.336 | 0.266 | 0.311 | 0.597 | 0.403 | 0.337 | 0.408 | 0.339
10 | NCI-H2347 | 0.979 | 0.872 | 0.564 | 0.783 | 0.826 | 0.406 | 0.442 | 0.486 | 0.412 | 0.434 | 0.565 | 0.54 | 0.527 | 0.525 | 0.505 | 0.386 | 0.403 | 0.401 | 0.424 | 0.373
11 | NCI-H2405 | 0.452 | 0.475 | 0.372 | 0.444 | 0.469 | 0.796 | 0.825 | 0.671 | 0.726 | 0.825 | 0.757 | 0.745 | 0.681 | 0.713 | 0.686 | 0.336 | 0.351 | 0.332 | 0.381 | 0.358
12 | NCI-H3122 | 0.587 | 0.549 | 0.325 | 0.59 | 0.363 | 0.198 | 0.232 | 0.228 | 0.208 | 0.201 | 0.638 | 0.643 | 0.497 | 0.476 | 0.579 | 0.166 | 0.178 | 0.169 | 0.17 | 0.133
13 | PC-3 [JPC-3] | 0.881 | 0.828 | 0.793 | 0.789 | 0.747 | 0.988 | 0.9 | 0.72 |  | 1.07 | 1.07 | 1.21 | 1.1 |  | 1.05 | 0.579 | 0.497 | 0.548 |  | 0.545
14 | PC-14 | 0.796 | 0.661 | 0.62 | 0.589 | 0.476 | 0.176 | 0.186 | 0.181 | 0.184 | 0.184 | 0.46 | 0.434 | 0.298 | 0.343 | 0.411 | 0.43 | 0.368 | 0.336 | 0.301 | 0.295
15 | RERF-LC-KJ | 0.632 | 0.463 | 0.408 | 0.481 | 0.53 | 0.468 | 0.489 | 0.498 | 0.426 | 0.457 | 0.666 | 0.61 | 0.593 | 0.605 | 0.606 | 0.88 | 0.674 | 0.644 | 0.588 | 0.511
